Laboratory results reported in patent publication US4005146A, “Resolution of dl-allethrolone” (Roussel-UCLAF, priority 1971, dated 1977).

Legend:
[1] = tested on: female german cockroaches; assay: Knock down effect on female german cockroaches by direct spraying; assay type: in vivo; settings: for % KD after 5 min. / % KD after 10 min. / % KD after 15 min. / % KD after 30 min. / % KD after 60 min.: direct spraying 0.5 ml kerosene/acetone; for KD50 times more active than compound B: compound A vs compound B
Method: The knock down effect of the same two compounds was determined on female german cockroaches by direct spraying as 0.5 ml of a solution in equal volumes of kerosene and acetone. 20 insects were used for each test and the knock down effect was determined at 5,10,15,30 and 60 minutes after treatment.

house flies = assay: Lethal insecticidal activity on house flies, topical application to dorsal thorax; assay type: in vivo; settings: for % Mortality / DL50: 24 hours after topical treatment, 1 μl acetone solution
Method: The lethal insecticidal activity of d-allethrolone chrysanthemate (compound A) was compared with dl-allethrolone chrysanthemate (compound B) on house flies by topically applying 1 μl of an acetone solution thereof to the dorsal thorax of the insect. 50 insects were used for each dose and the number of dead was determined 24 hours after the treatment.

[2] = vs chrysanthemic acid ester of levo allethrolone; Elliott, J. Sci. Food Agr. 1954; cited from earlier work
[3] = Insecticidal activity of d-allethrolone d-trans chrysanthemate vs the dl-allethrolone ester (general statement); assay type: in vivo

In the case of `C=CCC1=C(C)C(OC(=O)C2C(C=C(C)C)C2(C)C)CC1=O` (racemic) [B, dl-allethrolone chrysanthemate, reference compound], the “% KD after 5 min.” value ([1]; 250 mg/l) was 7.5%, the “% KD after 10 min.” value ([1]; 250 mg/l) was 7.5% and the “% KD after 15 min.” value ([1]; 250 mg/l) was 12.5%. The “% KD after 30 min.” value ([1]; 250 mg/l) was 12.5%, the “% KD after 60 min.” value ([1]; 250 mg/l) was 12.5% and the “% KD after 5 min.” value ([1]; 500 mg/l) was 30.9%. The “% KD after 10 min.” value ([1]; 500 mg/l) was 50.0%, the “% KD after 15 min.” value ([1]; 500 mg/l) was 54.7% and the “% KD after 30 min.” value ([1]; 500 mg/l) was 47.6%. For the same compound, the “% KD after 60 min.” value ([1]; 500 mg/l) was 45.2%, the “% KD after 5 min.” value ([1]; 1000 mg/l) was 46.1% and the “% KD after 10 min.” value ([1]; 1000 mg/l) was 64.1%. For the same compound, the “% KD after 15 min.” value ([1]; 1000 mg/l) was 74.3%, the “% KD after 30 min.” value ([1]; 1000 mg/l) was 79.4% and the “% KD after 60 min.” value ([1]; 1000 mg/l) was 89.7%. For the same compound, the “% Mortality” value (house flies; 50 mg/l) was 16.2%, the “% Mortality” value (house flies; 100 mg/l) was 33.7% and the “% Mortality” value (house flies; 200 mg/l) was 49.0%. The “% Mortality” value (house flies; 300 mg/l) was 55.1% and the DL50 (house flies) was 224.3 mg/L.
For `C=CCC1=C(C)[C@@H](OC(=O)C2C(C=C(C)C)C2(C)C)CC1=O` (stereo partly drawn) [A, d-allethrolone chrysanthemate], the “times more effective as an insecticide than the ester of levo allethrolone” value [2] is given as 4 times, the “% KD after 5 min.” value ([1]; 250 mg/l) is given as 45.0% and the “% KD after 10 min.” value ([1]; 250 mg/l) is given as 52.5%. For the same compound, the “% KD after 15 min.” value ([1]; 250 mg/l) was 65.0%, the “% KD after 30 min.” value ([1]; 250 mg/l) was 62.5% and the “% KD after 60 min.” value ([1]; 250 mg/l) was 65.0%. For the same compound, the “% KD after 5 min.” value ([1]; 500 mg/l) was 61.9%, the “% KD after 10 min.” value ([1]; 500 mg/l) was 71.4% and the “% KD after 15 min.” value ([1]; 500 mg/l) was 83.3%. For the same compound, the “% KD after 30 min.” value ([1]; 500 mg/l) was 85.7%, the “% KD after 60 min.” value ([1]; 500 mg/l) was 88.0% and the “% KD after 5 min.” value ([1]; 1000 mg/l) was 100%. For the same compound, the “% KD after 10 min.” value ([1]; 1000 mg/l) was 100%, the “% KD after 15 min.” value ([1]; 1000 mg/l) was 100% and the “% KD after 30 min.” value ([1]; 1000 mg/l) was 100%. The “% KD after 60 min.” value ([1]; 1000 mg/l) was 100%, the “KD50 times more active than compound B” value ([1]; 5 minutes) was “about 4.3 times” and the “KD50 times more active than compound B” value ([1]; 30 minutes) was 2.8 times. For the same compound, the “% Mortality” value (house flies; 25 mg/l) was 49.0%, the “% Mortality” value (house flies; 50 mg/l) was 45.6% and the “% Mortality” value (house flies; 75 mg/l) was 76.6%. For the same compound, the “% Mortality” value (house flies; 100 mg/l) was 65.3%, the DL50 (house flies) was 54 mg/L and the “times more active than compound B (lethal activity)” value (house flies; compound A vs compound B, Table II) was 4.15 times.
With `C=CCC1=C(C)[C@@H](OC(=O)[C@@H]2[C@@H](C=C(C)C)C2(C)C)CC1=O` [d-allethrolone d-trans chrysanthemate] the “insecticidal activity relative to the corresponding dl-allethrolone ester” value [3] was “much superior insecticidal activity”.
